The text below walks through data of patent publication US7074785B2, “Δ1-pyrrolines used as pesticides” (Bayer Cropscience AG, priority 2001, dated 2006).

Where two headings read alike, the source gives them in different places.

The test system of data set [1] is Boophilus microplus resistant/SP-resistant Parkhurst strain, adult satiated females. In words: Test with Boophilus microplus resistant/SP-resistant Parkhurst strain. Type of data set: in vivo. To be noted: injected into abdomen, fertile egg deposition after 7 days. How it is done:
Test with Boophilus microplus Resistant/SP-Resistant Parkhurst Strain
Test animals: Adult satiated females
(§1) Solvent: Dimethyl sulphoxide
20 mg of active compound are dissolved in 1 ml of dimethyl sulphoxide. Lower concentrations are prepared by dilution in the same solvent.
The test is carried out in 5 replications. 1 μl of the solutions is injected into the abdomen, and the animals are transferred to dishes and kept in a climate-controlled room. After 7 days, activity is checked by examination for deposition of fertile eggs. Eggs whose fertility is not externally visible are stored in glass tubes in a controlled-environment cabinet until the larvae have hatched. An activity of 100% denotes that none of the ticks has laid fertile eggs.

Data set [2] concerns Heliothis virescens caterpillars. In words: Heliothis virescens test. Type of data set: in vivo. To be noted: 100 ppm, soya bean shoots dipped. The source says: (§2) Solvent: 7 parts by weight of dimethylformamide
Data set [3] concerns larvae of the mustard beetle (Phaedon cochleariae). As to the kind of experiment: Phaedon larvae test. Conditions: in Brassica oleracea, 168 h, read-out: Kill rate in % after 7 d, 100 ppm, cabbage leaves dipped, Phaedon cochleariae larvae.
The subject of data set [4] is army worm (Spodoptera exigua) caterpillars. In words: Spodoptera exigua test. To be noted: 100 ppm, cabbage leaves dipped. Format: in vivo.
From the text: as §2

The test system of data set [5] is caterpillars of the cabbage moth (Plutella xylostella), resistant strain. As to the kind of experiment: Plutella test, resistant strain. Format: in vivo. To be noted: 100 ppm, cabbage leaves dipped.
From the text: Plutella Test, Resistant Strain
as §2

Data set [6] deals with army worm (Spodoptera frugiperda) caterpillars. As to the kind of experiment: Spodoptera frugiperda test. Format: in vivo. Conditions: in Brassica oleracea, 168 h, read-out: Kill rate in % after 7 d, 100 ppm, cabbage leaves dipped, Spodoptera frugiperda.
The nature of data set [7]: logP determination by HPLC (reversed-phase C18, EEC Directive 79/831 Annex V.A8). Type of data set: physicochemical. How it is done:
The logP values stated in the above tables and Preparation Examples are determined in accordance with EEC Directive 79/831 Annex V.A8 by HPLC (High Performance Liquid Chromatography) using a reversed-phase column (C 18). Temperature: 43° C.
In the acidic range at pH 2.3 the determination takes place using 0.1% aqueous phosphoric acid and acetonitrile as the mobile phases; linear gradient from 10% acetonitrile to 90% acetonitrile. Corresponding results are marked in the tables by “a)”
In the neutral range at pH 7.5 the determination takes place using 0.01 molar aqueous phosphate buffer solution and acetonitrile as the mobile phases; linear gradient from 10% acetonitrile to 90% acetonitrile. Corresponding results are marked in the tables by “b)”
Calibration is carried out using unbranched alkan-2-ones (having 3 to 16 carbon atoms), with known logP values (the logP values determined on the basis of the retention times using linear interpolation between two successive alkanones).

Data set [8] concerns greenhouse red spider mite (Tetranychus urticae). In words: Tetranychus test (OP resistant/dip treatment). To be noted: 168 h, read-out: Kill rate in % after 7 d, 100 ppm, bean plants dipped, Tetranychus urticae OP-resistant. Format: in vivo. How it is done: Tetranychus Test (OP Resistant/Dip Treatment)
as §2
After the desired period of time, the effect in % is determined.

Data set [9] concerns caterpillars of the cabbage moth (Plutella xylostella, sensitive strain). As to the kind of experiment: Plutella test, sensitive strain. Conditions: 100 ppm, cabbage leaves dipped. Type of data set: in vivo.
From the text: Plutella Test, Sensitive Strain
as §2

Data set [10] concerns Adult Musca domestica, Reichswald strain (OP, SP, carbamate-resistant). In words: Test with flies (Musca domestica). Type of data set: in vivo. To be noted: filter paper disc. The procedure: Test with Flies (Musca domestica)
Test animals: Adult Musca domestica, Reichswald strain (OP, SP, carbamate-resistant)
as §1
20 mg of active compound are dissolved in 1 ml dimethyl sulphoxide. Lower concentrations are prepared by dilution with distilled water.
2 ml of this active compound preparation are pipetted on filter paper discs (Ø9.5 cm) in Petri dishes of corresponding dimensions. After the filter discs have been dried, 25 test animals are transferred to the Petri dishes, which are then covered.
After 1, 3, 5, 24 and 48 hours the activity of the active compound preparation is measured. 100% means that all flies have been killed, 0% means that no fly has been killed.

Setting [11] is: HPLC, acidic range pH 2.3, 0.1% aqueous phosphoric acid/acetonitrile; marked a), read-out: log P (pH 2.3).
Setting [12] is: HPLC, neutral range pH 7.5, 0.01 molar phosphate buffer/acetonitrile; marked b), read-out: log P (pH 7.5).

In the case of `CC(C)OC(=O)Nc1ccc(-c2ccc(C3CCC(c4c(F)cccc4F)=N3)cc2)cc1` (stereo not drawn) [Compound 7], the values for the Activity/kill in % in data set [1] (20 μg/animal) and in data set [1] (100 μg/animal) were 0% and 40%, respectively. The “Kill rate in % after 7 d” value in data set [2], in data set [4], in data set [5] and in data set [9] was 100% each time. The pest or weed control at 100 ppm in data set [3] is not below 85%; in data set [6], not below 95%; in data set [8], not below 85%. The values for the chromatographic logP in data set [7] (setting [11]) and in data set [7] (setting [12]) were 3 and 4.19, respectively.
For the compound `CNC(=O)Nc1ccc(-c2ccc(C3CCC(c4c(F)cccc4F)=N3)cc2)cc1` (stereo not drawn) [Compound 13], the Activity/kill in % in data set [10] (20 ppm) is 0%; in [10] (100 ppm), 30%. The chromatographic logP in data set [7] (reversed-phase C18 HPLC column; HPLC, acidic range pH 2.3, 0.1% aqueous phosphoric acid/acetonitrile; marked a), read-out: log P (pH 2.3)) amounted to 1.71; in data set [7] (reversed-phase C18 HPLC column; HPLC, neutral range pH 7.5, 0.01 molar phosphate buffer/acetonitrile; marked b), read-out: log P (pH 7.5)), 2.78.
For `CC(C)COC(=O)Nc1ccc(-c2ccc(C3CCC(c4c(F)cccc4F)=N3)cc2)cc1` (stereo not drawn) [Compound 8], the Activity/kill in % in [1] (4 μg/animal) was determined as 0%; in data set [1] (20 μg/animal), 40%; in [1] (100 μg/animal), 80%. Further, the “Kill rate in % after 7 d” value in data set [2], in data set [4], in [5] and in data set [9] was 100% throughout. Besides, the results for the chromatographic logP in data set [7] (setting [11]) and in data set [7] (setting [12]) were 3.32 and 4.54, respectively.
